How the values were obtained:
Format in all cases: binding
[1] = target: T1, OmcA (Shewanella oneidensis, UniProt Q8EG33); assay: PD10 gel-filtration co-elution, flavin fluorescence and absorbance; conditions: anaerobic, 1 mM reduced glutathione (disulfide reduced), 10 uM FMN, 20 mM HEPES pH 7.6, room temperature
T1 construct: soluble form, isolated as in earlier work
T1 sequence (Q8EG33 28-735): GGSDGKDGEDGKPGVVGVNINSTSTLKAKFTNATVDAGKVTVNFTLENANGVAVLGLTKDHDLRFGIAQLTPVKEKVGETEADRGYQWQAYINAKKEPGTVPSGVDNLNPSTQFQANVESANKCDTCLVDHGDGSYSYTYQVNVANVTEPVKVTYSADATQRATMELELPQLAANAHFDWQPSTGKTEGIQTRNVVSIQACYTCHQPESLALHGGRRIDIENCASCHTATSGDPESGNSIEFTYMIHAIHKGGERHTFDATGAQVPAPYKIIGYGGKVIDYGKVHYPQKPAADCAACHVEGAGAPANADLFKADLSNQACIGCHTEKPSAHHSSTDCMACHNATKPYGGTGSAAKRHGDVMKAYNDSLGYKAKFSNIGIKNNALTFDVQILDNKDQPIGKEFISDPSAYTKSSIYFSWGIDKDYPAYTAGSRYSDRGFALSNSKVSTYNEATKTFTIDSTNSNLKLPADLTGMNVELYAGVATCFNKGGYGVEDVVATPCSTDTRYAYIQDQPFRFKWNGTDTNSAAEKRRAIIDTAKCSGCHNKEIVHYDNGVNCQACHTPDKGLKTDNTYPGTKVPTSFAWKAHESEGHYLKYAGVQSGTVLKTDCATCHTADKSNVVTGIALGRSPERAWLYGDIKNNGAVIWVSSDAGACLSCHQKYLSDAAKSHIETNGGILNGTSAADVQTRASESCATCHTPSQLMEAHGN

[2] = target: T2, MtrF (Shewanella oneidensis, UniProt Q8EG32); assay: PD10 gel-filtration co-elution, flavin fluorescence ([…] nm); conditions: anaerobic, 1 mM reduced glutathione (disulfide reduced), 10 uM FMN, 20 mM HEPES pH 7.6, room temperature
T2 construct: detergent-solubilised form, isolated as in earlier work
T2 sequence (Q8EG32 24-639): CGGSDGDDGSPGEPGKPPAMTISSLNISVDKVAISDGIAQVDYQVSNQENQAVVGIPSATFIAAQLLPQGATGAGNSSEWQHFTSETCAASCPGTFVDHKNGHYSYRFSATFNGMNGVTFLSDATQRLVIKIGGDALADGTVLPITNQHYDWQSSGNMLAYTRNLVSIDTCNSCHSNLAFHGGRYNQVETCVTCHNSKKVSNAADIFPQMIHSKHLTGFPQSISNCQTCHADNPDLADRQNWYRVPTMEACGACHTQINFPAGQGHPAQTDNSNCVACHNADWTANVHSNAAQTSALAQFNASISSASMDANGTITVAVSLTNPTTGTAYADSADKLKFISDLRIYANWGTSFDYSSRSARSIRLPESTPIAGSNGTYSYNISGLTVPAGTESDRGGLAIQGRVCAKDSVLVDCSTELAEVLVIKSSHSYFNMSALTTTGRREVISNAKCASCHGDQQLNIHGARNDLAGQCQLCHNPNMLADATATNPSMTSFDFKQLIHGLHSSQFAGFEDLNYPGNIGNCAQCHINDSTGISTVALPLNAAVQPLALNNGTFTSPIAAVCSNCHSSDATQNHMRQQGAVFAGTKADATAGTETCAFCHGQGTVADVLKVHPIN

[3] = target: T3, MtrC (Shewanella oneidensis, UniProt Q8EG34); assay: PD10 gel-filtration co-elution, flavin fluorescence and absorbance; fluorescence quenching; conditions: anaerobic, 1 mM reduced glutathione (disulfide reduced), 1 uM MtrC, 10 uM FMN, 20 mM HEPES pH 7.6, room temperature
T3 construct: soluble; pLS146 in S. oneidensis LS329; model residues 45-670
T3 sequence (Q8EG34 26-671): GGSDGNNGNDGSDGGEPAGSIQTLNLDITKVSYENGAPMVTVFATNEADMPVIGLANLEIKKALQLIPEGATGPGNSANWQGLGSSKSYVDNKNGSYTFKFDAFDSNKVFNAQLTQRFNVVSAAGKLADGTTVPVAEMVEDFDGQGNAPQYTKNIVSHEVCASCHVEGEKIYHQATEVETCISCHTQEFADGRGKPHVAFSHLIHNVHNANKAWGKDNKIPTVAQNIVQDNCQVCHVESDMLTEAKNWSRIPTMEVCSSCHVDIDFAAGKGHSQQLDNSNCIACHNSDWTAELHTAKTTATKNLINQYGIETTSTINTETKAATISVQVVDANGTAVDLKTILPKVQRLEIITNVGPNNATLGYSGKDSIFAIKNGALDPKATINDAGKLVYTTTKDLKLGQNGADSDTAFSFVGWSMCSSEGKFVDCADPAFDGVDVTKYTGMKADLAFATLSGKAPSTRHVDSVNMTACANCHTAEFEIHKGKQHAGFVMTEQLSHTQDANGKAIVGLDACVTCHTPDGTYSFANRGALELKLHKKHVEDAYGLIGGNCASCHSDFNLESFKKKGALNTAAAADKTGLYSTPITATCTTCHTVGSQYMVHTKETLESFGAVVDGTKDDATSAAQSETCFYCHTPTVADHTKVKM

[4] = target: T4, UndA (Shewanella sp. HRCR_06, UniProt F8UWD6); assay: PD10 gel-filtration co-elution, flavin fluorescence ([…] nm); conditions: anaerobic, 1 mM reduced glutathione (disulfide reduced), 10 uM FMN, 20 mM HEPES pH 7.6, room temperature
T4 construct: soluble form, isolated as in earlier work
T4 sequence (F8UWD6 27-843): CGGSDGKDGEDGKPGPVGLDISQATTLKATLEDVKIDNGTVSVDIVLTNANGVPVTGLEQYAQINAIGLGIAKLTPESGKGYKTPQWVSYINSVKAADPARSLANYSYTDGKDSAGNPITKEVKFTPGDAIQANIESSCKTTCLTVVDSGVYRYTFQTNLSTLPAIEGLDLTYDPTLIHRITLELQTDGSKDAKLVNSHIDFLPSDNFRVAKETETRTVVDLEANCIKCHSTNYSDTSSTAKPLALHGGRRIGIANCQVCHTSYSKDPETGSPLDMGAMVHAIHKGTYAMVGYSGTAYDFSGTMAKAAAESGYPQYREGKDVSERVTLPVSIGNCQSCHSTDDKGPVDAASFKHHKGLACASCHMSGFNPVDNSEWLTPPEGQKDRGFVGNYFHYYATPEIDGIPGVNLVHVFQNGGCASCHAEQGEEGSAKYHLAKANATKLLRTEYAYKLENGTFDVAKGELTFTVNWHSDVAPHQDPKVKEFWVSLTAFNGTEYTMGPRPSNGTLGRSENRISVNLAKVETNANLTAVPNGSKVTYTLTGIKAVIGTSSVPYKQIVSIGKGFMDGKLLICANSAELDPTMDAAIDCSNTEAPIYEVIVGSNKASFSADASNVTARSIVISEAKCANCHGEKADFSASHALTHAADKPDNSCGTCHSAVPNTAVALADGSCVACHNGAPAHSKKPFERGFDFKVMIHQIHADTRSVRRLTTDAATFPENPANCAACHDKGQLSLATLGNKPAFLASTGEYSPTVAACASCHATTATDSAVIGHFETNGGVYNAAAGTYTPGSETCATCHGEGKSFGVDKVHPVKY

[5] = target: T3, MtrC; assay: PD10 gel-filtration co-elution, spectroscopy; conditions: anaerobic, reduced glutathione (disulfide reduced), 20 mM HEPES pH 7.6, room temperature

SMILES	PD10 gel-filtration co-elution, flavin fluorescence and absorbance [1]	PD10 gel-filtration co-elution, flavin fluorescence (525 nm) [2]	PD10 gel-filtration co-elution, flavin fluorescence and absorbance; fluorescence [3]	PD10 gel-filtration co-elution, flavin fluorescence (525 nm) [4]	PD10 gel-filtration co-elution, spectroscopy [5]
Cc1cc2nc3c(=O)[nH]c(=O)nc-3n(C[C@H](O)[C@H](O)[C@H](O)COP(=O)(O)O)c2cc1C [FMN]	Co-elution of FMN and OmcA was observed in the presence, but not the absence, of glutathione	OMMC-FMN interactions were also observed after incubation of MtrF or UndA with FMN	FMN associated specifically with MtrC in the presence of glutathione	OMMC-FMN interactions were also observed after incubation of MtrF or UndA with FMN	
Cc1cc2nc3c(=O)[nH]c(=O)nc-3n(C[C@H](O)[C@H](O)[C@H](O)CO)c2cc1C [riboflavin]					MtrC was also capable of tightly binding a single molecule of riboflavin

— PMC4486940, “Redox Linked Flavin Sites in Extracellular Decaheme Proteins Involved in Microbe-Mineral Electron Transfer” (Scientific Reports, 2015)
